Reference: PubChem BioAssay (NCI)
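96-well plates; 48 h exposure; 5 concentrations. Endpoints by linear interpolation between flanking doses. Not reached: highest tested concentration assigned. At the TGI there is no net growth.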

Legend:
Test in all cases: NCI-60 cell line screen, 48 h
SN12C renal = system: SN12C renal
OVCAR-5 ovarian = system: OVCAR-5 ovarian
LOX IMVI melanoma = system: LOX IMVI melanoma
786-0 renal = system: 786-0 renal
UACC-257 melanoma = system: UACC-257 melanoma
SNB-75 CNS = system: SNB-75 CNS
MDA-MB-231 breast = system: MDA-MB-231 breast
HOP-92 NSCLC = system: HOP-92 NSCLC
M14 melanoma = system: M14 melanoma
NCI-H522 lung = system: NCI-H522 lung

Row | Structure (SMILES) | TGI (SN12C renal) [µM] | TGI (OVCAR-5 ovarian) [µM] | TGI (LOX IMVI melanoma) [µM] | TGI (786-0 renal) [µM] | TGI (UACC-257 melanoma) [µM] | TGI (SNB-75 CNS) [µM] | TGI (MDA-MB-231 breast) [µM] | TGI (HOP-92 NSCLC) [µM] | TGI (M14 melanoma) [µM] | TGI (NCI-H522 lung) [µM]
1 | COc1ccc2c3c1OC1C(OC)(OC)CC4(C=C2)CN(C)CCC314 (stereo unspecified) | > 100 | > 100 | > 100 | > 100 | > 100 | > 100 | > 100 |  |  | 
2 | CN1NC(c2ccccc2)=C(C#N)C(=O)CC1c1ccc(Br)cc1 (stereo unspecified) | > 100 | 73.7 | > 100 |  | > 100 | 46.9 |  | > 100 | 45.8 | 53.7
3 | CC[n+]1c(/C=C/c2ccc(N(CCCl)CCCl)cc2)ccc2cc(I)ccc21 | 2.71 | 7.77 | 2.85 |  | 2.61 | 0.903 |  | 2.13 |  | 1.64
4 | Cc1ccc(/S(Cc2ccccc2)=N\S(=O)(=O)c2ccc(C)cc2)cc1 (stereo unspecified) | > 100 | > 100 |  | > 100 | > 100 |  |  | > 100 | > 100 | 
5 | OC12c3ccccc3C1CCCCCC21OCCCO1 (stereo unspecified) | > 100 | > 100 | > 100 | > 100 | > 100 | > 100 |  |  | > 100 | > 100
6 | C=CCn1c(=N)/c(=C(\N)O)s/c1=C1/SC(=S)N(c2ccc(C)cc2)C1=O |  | > 100 |  |  | > 100 | 44.6 |  | > 100 |  | > 100
7 | C[n+]1ccccc1/C1=c2\cc/c([nH]2)=C(\c2cccc[n+]2C)C2=N/C(=C(/c3cccc[n+]3C)C3C=CC(N3)/C(c3cccc[n+]3C)=C3/C=CC1=N3)C=C2 | > 100 | > 100 | > 100 | > 100 | > 100 |  |  | > 100 | > 100 | > 100
8 | O=C(c1ccco1)N(C(=S)N1CCN(c2ccccn2)CC1)c1ccccc1 | > 100 | > 100 | > 100 | > 100 | > 100 | > 100 |  | > 100 | > 100 | > 100
9 | O=C(O)c1ccc(Nc2nc3nn(Cc4ccccc4)cc3c(=O)s2)cc1 | > 100 | > 100 | > 100 | > 100 | > 100 |  |  | > 100 | > 100 | > 100
10 | CCCCCCCCCC(=O)NC(Cc1ccc(O)cc1)C(=O)NCCCNCCCCNCCCNC(=O)[C@@H](N)CCCN=C(N)N (stereo partly specified) | > 100 |  | > 100 | > 100 | > 100 |  |  |  | > 100 | 69.7
11 | COc1cc(S(=O)(=O)Nc2ccc(-c3csc(N4C(=O)C(Cl)C4c4cccs4)n3)cc2)ccc1Cl (stereo unspecified) | > 100 | > 100 | 5.15 | 68.3 | > 100 | > 100 |  | 45.5 | > 100 | 30.6
12 | OC12CCC3(O)c4ccccc4C3C1c1ccccc12 (stereo unspecified) | > 100 |  | > 100 | > 100 | > 100 | > 100 |  |  | > 100 | > 100
13 | CCC(=O)Nc1ccc(NCC(=O)Nc2ccc(OC)cc2)cc1 | 37.5 | 37.2 | 39.3 | 46.4 | 64.2 | 34.3 |  | 66.3 | > 100 | 29.5
14 | COc1cc(OC)c(OC)cc1/C=C/c1cc[n+](C)c2ccccc12 |  | > 100 |  | > 100 | 50.9 | > 100 |  | 76.2 | > 100 | 
15 | Cc1nc(Nc2ccc(Cl)c(Cl)c2)sc1C(=O)/C=C/c1ccc2c(c1)OCO2 |  | > 100 | 35.3 | 38.4 | > 100 | 31.4 |  |  |  | 
16 | O=C1C(Cl)=C(NCCF)C(=O)c2ncccc21 | 3.35 | 3.29 | 2.26 | 3.21 | 3.03 | 2.6 | 4 |  | 3.15 | 
17 | COc1ccc(/C(Cl)=C(\C=O)c2ccc(Cl)cc2)cc1OC | 16.6 | > 100 | 14.5 |  | 37.4 | 11.5 |  |  | 97.3 | 6.27
18 | CCOc1cc(-c2nc3cc(F)ccc3s2)ccc1O | 35.6 | 33.3 | 33.4 | 29.6 | 31 |  | 48.4 |  | 33.4 | 24.2
19 | CCN(CC)CCN1C(=O)C(=O)N(c2cccc3ccccc23)C1=O | > 10 | > 10 | > 10 |  |  | > 10 | > 10 |  | > 10 | > 10
20 | O=C1NC(=Nc2ccccc2Cl)N/C1=C\c1ccc(Cl)cc1Cl | 73.6 | > 100 | > 100 | > 100 | > 100 | 93 |  | > 100 | > 100 | > 100
21 | CC12CCC(CC1(Cl)Cl)C2 (stereo unspecified) | > 100 | > 100 | > 100 | > 100 | > 100 | > 100 |  | > 100 | > 100 | > 100
